In patent US20120244568A1, “LABEL-FREE RIGID CELL ASSAY METHOD” (priority 2011, published 2012):
Read-outs that look alike come from different tables or passages of the source.

Tests used:
Format in all cases: cell-based
[1] = test system: Saccharomyces cerevisiae S288C yeast cells; test: yeast cell count by hemocytometer of DRCA assay samples; settings: with amphotericin treatment; FIG. 8; untreated sample about 12,000,000 cells
Text: (§1) The samples from the aforementioned DRCA assay were further analyzed with a spectrophotometer (Agilent Technologies, Wilmington, Del.) and hemocytometer (Thermo Fisher Scientific, Hudson, N.H.). […] With amphotericin treatment, the cell number was about zero, compared to about 12,000,000 cells in the untreated sample, see FIG. 8 (yeast cell count by hemocytometer) for amphotericin (80) and no amphotericin (82) at each of three wavelengths.

[2] = test system: Saccharomyces cerevisiae S288C yeast cells; test: label-free DRCA multi-wavelength SPR yeast cell assay (response to a substance); settings: 10 micromolar; for effect on yeast cell growth: 4,000 cells per well, pre-incubated 60 minutes; for effect on yeast cell growth / effect on yeast cell growth measured at short penetration depth: FIG. 4; for effect on yeast cell growth compared with the other modulators: consistent at three different penetration depths, versus fluconazole and ketaconazole; for effect on yeast cell growth measured at short penetration depth: 660 nm laser source
Experimental: Yeast cells were cultured on an YPD agar plate at 28° C. for 16 hours and kept at 4° C. until just prior to use. From the agar plate, yeast cells were collected and seeded into YPD liquid medium and cultured at 28° C. for 8 hours. The cells were then diluted with its liquid medium to obtain a cell density of about 4,000 cells/mL as a starting point for cell inhibition studies. For the detection of yeast cells, the cells were collected at the late logarithm phase and collected by centrifugation at 10,000 g for 10 minutes. Cells were further washed to remove debris and/or high index material such as glucose.
A DRCA™ system equipped with three lasers having wavelengths of, for example, 660 nm, 980 nm, and 1480 nm, was selected for the study. The system allows for simultaneously measuring a cell at three different wavelengths. The output measures the angular change of the surface plasmon resonance (SPR). The angular change indicates a mass change within the defined sensing region. The depth of the sensing region depends on the wavelength of the selected illuminating laser as listed, for example, in Table 1.
A user-assembled assay plate was first assembled with a gold coated glass slide and an 80-well holey plate (cut from a 384-well holey plate). Yeast cells were seeded into the wells with or without a compound and incubated in the instrument for approximately 60 minutes at 22° C. The cell responses were then measured and data were collected according to the description in the aforementioned U.S. Ser. No. 12/956,464.
A procedure for accomplishing a label-free rigid cell assay response to a substance in accord with the present disclosure can include, for example: • 1. clean and assemble an 80-well holey plate on top of a gold chip; • 2. sterile the assembled chip by exposure to high intensity UV light for around 5 minutes; • 3. grow yeast cells until the middle or late logarithm stage, preferably the former for an active inoculum; • 4. turn on the DRCA optical system to warm-up the lasers for, e.g., 1 hour; • 5. collect yeast cell by centrifugation at, e.g., 10,000 g for 10 minutes; • 6. wash the cells with at least 5× fold volume of the pellet using a saline buffer, such as phosphate saline buffer; • 7. vortex the cell solution using, for example, a bench top vortex mixer; • 8. collect yeast cells by centrifugation at e.g. 10,000 g for 10 minutes; • 9. repeat steps 6 to 8 for approximately three (3) times to remove high refractive index materials, such as, sugar residues, cell debris, or like materials, and mixtures thereof; • 10. count yeast cell number using, e.g., a hemocytometer • 11. prepare assay buffer with or without a substance (compound/bio-molecule); • 12. load assay buffer with or without a substance (compound/bio-molecule) to each well of the cell chamber and let it equilibrate for, e.g., 60 minutes; • 13. record the baselines for, e.g., 15 minutes; • 14. add a small amount of yeast cells, such as 4000 cells/mL to each well; • 15. monitor the yeast cell response, for example, to an added substance, with a plurality of wavelengths and depths; • 16. record the data; and • 17. analyze the data by calculating the difference between the end points and baselines.
Four modulator compounds were used to study of their effect on yeast cells. A user assembled (i.e., a virtual) assay plate was seeded with 4,000 cells per well. A modulator was added to a test well at 10 micromolar and then pre-incubated for 60 minutes. Each modulator was tested in three replicates. The well without a modulator was a positive control. […] However, the difference between the modulators and controls was more substantial when measured at the longest penetration depth using the 1480 nm laser source. […] Accordingly, the disclosed method can be useful for drug screening, drug development, and like applications.
Time course of a modulator effect. The effect of an amphotericin compound on yeast cells was monitored in real time under ambient condition. […]

[3] = test system: Saccharomyces cerevisiae S288C yeast cells; test: as above
[4] = test system: Saccharomyces cerevisiae S288C yeast cells; test: turbidometric determination with a visible light spectrophotometer (absorbance OD580) of DRCA assay samples; settings: 10 micromolar, FIG. 7
Text: FIG. 7 charts absorbance readings of a conventional turbidometric determination using a visible light spectrophotometer, for cultured yeast cells without amphotericin (left; amphotericin at 0 micromolar) and contacted with amphotericin (right; amphotericin at 10 micromolar). Turbidity can be used as an indirect measure of cell growth. Using a standard curve generated with serial dilutions of known number cells, one can estimate cell density in a turbid cell culture.
as §1

Compound	cell number [1]	effect on yeast cell growth [2]	change in response over time (time course) ([2]; about 16 hours, any given penetration depth (660, 980, 1480 nm), FIG. 5)	effect on yeast cell growth compared with the other modulators [2]	IC50 ([3]; read-out: IC50 (inhibition curve, yeast cells), 660 nm wavelength, about 4000 cells/well, 3,000 nM serially diluted at 3 fold, R^2=0.9072)	IC50 ([3]; read-out: IC50 (inhibition curve, yeast cells), 980 nm wavelength, about 4000 cells/well, 3,000 nM serially diluted at 3 fold, R^2=0.9486)	IC50 ([3]; read-out: IC50 (inhibition curve, yeast cells), 1480 nm wavelength, about 4000 cells/well, 3,000 nM serially diluted at 3 fold, R^2=0.9817)	cell growth by turbidity [4]	OD580 absorbance reading ([4]; untreated sample about 12)	effect on yeast cell growth measured at short penetration depth [2]
C[C@@H]1[C@H](O)[C@@H](C)/C=C/C=C/C=C/C=C/C=C/C=C/C=C/[C@H](O[C@@H]2O[C@H](C)[C@@H](O)[C@H](N)[C@@H]2O)C[C@@H]2O[C@](O)(C[C@@H](O)C[C@@H](O)[C@H](O)CC[C@@H](O)C[C@@H](O)CC(=O)O[C@H]1C)C[C@H](O)[C@H]2C(=O)O [amphotericin, Amphotericin]	about zero	had an effect on yeast cell growth	almost no change in response	more noticeable effect	374 nM	271 nM	158 nM	cell growth was inhibited	about zero	
Clc1ccccc1C(c1ccccc1)(c1ccccc1)n1ccnc1 [clotrimazole]		had an effect on yeast cell growth		more noticeable effect						
OC(Cn1cncn1)(Cn1cncn1)c1ccc(F)cc1F [fluconazole]		had an effect on yeast cell growth								not detectable
CC(=O)N1CCN(c2ccc(OCC3COC(Cn4ccnc4)(c4ccc(Cl)cc4Cl)O3)cc2)CC1 (stereo not drawn) [ketaconazole]		had an effect on yeast cell growth								not detectable
